Results published in PubChem BioAssay (NCI).
Values joined by “and” are separate entries in the source; they are usually repeats but may differ in a detail not shown here. Identical values can stand only once.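 Test compounds were applied to cells in 96-well plates for 48 hours at 5 doses. At the GI50, growth is halved. TGI: total growth inhibition.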

Columns and labels:
Experiment in all cases: NCI tumour cell line growth inhibition, 48 h
SF-268 CNS = tested on: SF-268 CNS
KM12 colon = tested on: KM12 colon
MALME-3M melanoma = tested on: MALME-3M melanoma
HCT-15 colon = tested on: HCT-15 colon
M19-MEL melanoma = tested on: M19-MEL melanoma
SK-MEL-28 melanoma = tested on: SK-MEL-28 melanoma
SF-539 CNS = tested on: SF-539 CNS
OVCAR-8 ovarian = tested on: OVCAR-8 ovarian
SNB-78 CNS = tested on: SNB-78 CNS
SN12C renal = tested on: SN12C renal
EKVX NSCLC = tested on: EKVX NSCLC
DMS 114 small cell lung = tested on: DMS 114 small cell lung
U251 CNS = tested on: U251 CNS
NCI-H460 lung = tested on: NCI-H460 lung
A498 renal = tested on: A498 renal
NCI-H522 lung = tested on: NCI-H522 lung
HL-60(TB) leukemia = tested on: HL-60(TB) leukemia
SF-295 CNS = tested on: SF-295 CNS
KM20L2 colon = tested on: KM20L2 colon
OVCAR-5 ovarian = tested on: OVCAR-5 ovarian
SW-620 colon = tested on: SW-620 colon
ACHN renal = tested on: ACHN renal
K-562 leukemia = tested on: K-562 leukemia
OVCAR-4 ovarian = tested on: OVCAR-4 ovarian
CCRF-CEM leukemia = tested on: CCRF-CEM leukemia
CAKI-1 renal = tested on: CAKI-1 renal
HT29 colon = tested on: HT29 colon
UACC-257 melanoma = tested on: UACC-257 melanoma
HCT-116 colon = tested on: HCT-116 colon
786-0 renal = tested on: 786-0 renal
M14 melanoma = tested on: M14 melanoma
RXF-631 renal = tested on: RXF-631 renal
SK-OV-3 ovarian = tested on: SK-OV-3 ovarian
TK-10 renal = tested on: TK-10 renal
A549 NSCLC = tested on: A549 NSCLC
RPMI-8226 leukemia = tested on: RPMI-8226 leukemia
MOLT-4 leukemia = tested on: MOLT-4 leukemia
NCI-H23 lung = tested on: NCI-H23 lung
UACC-62 melanoma = tested on: UACC-62 melanoma
SNB-19 CNS = tested on: SNB-19 CNS
NCI-H226 lung = tested on: NCI-H226 lung
SK-MEL-5 melanoma = tested on: SK-MEL-5 melanoma
HOP-18 NSCLC = tested on: HOP-18 NSCLC
SNB-75 CNS = tested on: SNB-75 CNS
LXFL 529 NSCLC = tested on: LXFL 529 NSCLC
HCC-2998 colon = tested on: HCC-2998 colon
OVCAR-3 ovarian = tested on: OVCAR-3 ovarian
DLD-1 colon = tested on: DLD-1 colon
HOP-62 NSCLC = tested on: HOP-62 NSCLC
COLO 205 colon = tested on: COLO 205 colon
HOP-92 NSCLC = tested on: HOP-92 NSCLC
IGROV1 ovarian = tested on: IGROV1 ovarian
UO-31 renal = tested on: UO-31 renal
MCF7 breast = tested on: MCF7 breast
MDA-MB-435 = tested on: MDA-MB-435
DU-145 prostate = tested on: DU-145 prostate
MDA-MB-231 breast = tested on: MDA-MB-231 breast
XF 498 CNS = tested on: XF 498 CNS
SN12K1 renal = tested on: SN12K1 renal
P388/ADR leukemia = tested on: P388/ADR leukemia
T-47D breast = tested on: T-47D breast
P388 leukemia = tested on: P388 leukemia
SK-MEL-2 melanoma = tested on: SK-MEL-2 melanoma
PC-3 prostate = tested on: PC-3 prostate

Structure (SMILES): CCN(CC)c1c(C)nnn1C1OC(COC(C)=O)C(OC(C)=O)C(OC(C)=O)C1OC(C)=O (stereo not drawn)
- TGI (SF-268 CNS): > 100000 nM
- TGI (KM12 colon): > 100000 nM
- TGI (MALME-3M melanoma): > 100000 nM
- TGI (HCT-15 colon): > 100000 nM
- TGI (M19-MEL melanoma): > 100000 nM
- TGI (SK-MEL-28 melanoma): > 100000 nM
- TGI (SF-539 CNS): > 100000 nM
- TGI (OVCAR-8 ovarian): > 100000 nM
- TGI (SNB-78 CNS): > 100000 nM
- TGI (SN12C renal): > 100000 nM
- TGI (EKVX NSCLC): > 100000 nM
- TGI (DMS 114 small cell lung): > 100000 nM
- TGI (U251 CNS): > 100000 nM
- TGI (NCI-H460 lung): > 100000 nM
- TGI (A498 renal): > 100000 nM
- TGI (NCI-H522 lung): > 100000 nM
- TGI (HL-60(TB) leukemia): > 100000 nM
- TGI (SF-295 CNS): > 100000 nM
- TGI (KM20L2 colon): > 100000 nM
- TGI (OVCAR-5 ovarian): > 100000 nM
- TGI (SW-620 colon): 31300 nM
- TGI (ACHN renal): > 100000 nM
- TGI (K-562 leukemia): > 100000 nM
- TGI (OVCAR-4 ovarian): > 100000 nM
- TGI (CCRF-CEM leukemia): > 100000 nM
- TGI (CAKI-1 renal): > 100000 nM
- TGI (HT29 colon): > 100000 nM
- TGI (UACC-257 melanoma): > 100000 nM
- TGI (HCT-116 colon): > 100000 nM
- TGI (786-0 renal): > 100000 nM
- TGI (M14 melanoma): > 100000 nM
- TGI (RXF-631 renal): > 100000 nM
- TGI (SK-OV-3 ovarian): > 100000 nM
- TGI (TK-10 renal): > 100000 nM
- TGI (A549 NSCLC): > 100000 nM
- TGI (RPMI-8226 leukemia): 78300 nM
- TGI (MOLT-4 leukemia): > 100000 nM
- TGI (NCI-H23 lung): > 100000 nM
- TGI (UACC-62 melanoma): > 100000 nM
- TGI (SNB-19 CNS): > 100000 nM
- TGI (NCI-H226 lung): > 100000 nM
- TGI (SK-MEL-5 melanoma): > 100000 nM
- TGI (HOP-18 NSCLC): > 100000 nM
- TGI (SNB-75 CNS): > 100000 nM
- TGI (LXFL 529 NSCLC): > 100000 nM
- TGI (HCC-2998 colon): > 100000 nM
- TGI (OVCAR-3 ovarian): > 100000 nM
- TGI (DLD-1 colon): > 100000 nM
- TGI (HOP-62 NSCLC): > 100000 nM
- TGI (COLO 205 colon): > 100000 nM
- TGI (HOP-92 NSCLC): > 100000 nM
- TGI (IGROV1 ovarian): > 100000 nM
- TGI (UO-31 renal): > 100000 nM

Structure (SMILES): CC1OC(O[C@@H]2C=C3CC[C@@H]4[C@H](CC[C@]5(C)[C@@H](c6ccc(=O)oc6)CC[C@]45O)[C@@]3(C)CC2)C(O)C(OC2OC(CO)C(O)C(O)C2O)C1O (stereo partly drawn)
- TGI (SF-268 CNS): 9.83 nM
- GI50 (KM12 colon): 0.437 nM
- TGI (KM12 colon): 182 nM and 39 nM
- GI50 (MALME-3M melanoma): 0.628 nM
- TGI (MALME-3M melanoma): 14.3 nM
- GI50 (HCT-15 colon): 0.532 nM
- TGI (HCT-15 colon): 116 nM and 44.3 nM
- TGI (M19-MEL melanoma): 39 nM
- TGI (SK-MEL-28 melanoma): 86.7 nM
- TGI (SF-539 CNS): 0.699 nM
- TGI (OVCAR-8 ovarian): 16.2 nM and 29.9 nM
- TGI (SNB-78 CNS): 33 nM
- GI50 (EKVX NSCLC): 0.339 nM
- TGI (EKVX NSCLC): 5.34 nM and 25.4 nM
- GI50 (U251 CNS): 0.247 nM
- TGI (U251 CNS): 17.6 nM and 35.2 nM
- TGI (NCI-H460 lung): 1.43 nM
- TGI (A498 renal): 82.5 nM
- TGI (NCI-H522 lung): 0.427 nM
- GI50 (MCF7 breast): 0.196 nM
- TGI (MCF7 breast): 80.4 nM and 46.8 nM
- GI50 (MDA-MB-435): 0.454 nM
- TGI (MDA-MB-435): 20 nM
- TGI (KM20L2 colon): 54.5 nM
- GI50 (OVCAR-5 ovarian): 0.256 nM
- TGI (OVCAR-5 ovarian): 39 nM and 52.3 nM
- TGI (SW-620 colon): 34.8 nM and 28.8 nM
- TGI (ACHN renal): 3.01 nM
- TGI (OVCAR-4 ovarian): 7.98 nM
- TGI (CCRF-CEM leukemia): 133 nM
- TGI (DU-145 prostate): 11.1 nM
- TGI (CAKI-1 renal): 1.5 nM
- GI50 (MDA-MB-231 breast): 0.388 nM
- TGI (MDA-MB-231 breast): 19.6 nM
- TGI (XF 498 CNS): 27.6 nM
- TGI (HT29 colon): 87.8 nM and 349 nM
- GI50 (UACC-257 melanoma): 1.26 nM
- TGI (UACC-257 melanoma): 44.1 nM and 26.5 nM
- TGI (SN12K1 renal): 25 nM
- TGI (786-0 renal): 11.7 nM
- GI50 (M14 melanoma): 0.96 nM
- TGI (M14 melanoma): 14.8 nM
- TGI (TK-10 renal): 16 nM
- TGI (A549 NSCLC): 0.142 nM
- TGI (NCI-H23 lung): 23.6 nM
- TGI (UACC-62 melanoma): 26.3 nM
- GI50 (SNB-19 CNS): 0.38 nM
- TGI (SNB-19 CNS): 113 nM and 67.4 nM
- TGI (P388/ADR leukemia): 142000 nM
- GI50 (NCI-H226 lung): 10.1 nM
- TGI (NCI-H226 lung): 54.9 nM and 73.2 nM
- GI50 (T-47D breast): 2.16 nM
- GI50 (SK-MEL-5 melanoma): 0.14 nM
- TGI (SK-MEL-5 melanoma): 17.5 nM
- GI50 (SNB-75 CNS): 0.974 nM
- TGI (SNB-75 CNS): 58.7 nM and 40.7 nM
- TGI (P388 leukemia): 115000 nM
- TGI (HCC-2998 colon): 42.2 nM
- GI50 (OVCAR-3 ovarian): 0.162 nM
- TGI (OVCAR-3 ovarian): 25.3 nM
- TGI (DLD-1 colon): 25.3 nM
- TGI (HOP-62 NSCLC): 1.51 nM
- GI50 (COLO 205 colon): 0.949 nM
- TGI (COLO 205 colon): 163 nM and 29 nM
- GI50 (SK-MEL-2 melanoma): 0.866 nM
- TGI (SK-MEL-2 melanoma): 40.9 nM and 25.7 nM
- TGI (PC-3 prostate): 9.42 nM
- GI50 (HOP-92 NSCLC): 0.166 nM
- TGI (IGROV1 ovarian): 21.9 nM and 56.2 nM
- TGI (UO-31 renal): 3.16 nM and 26.3 nM
